Data published in patent US10456359B2, “Synergistic beverage composition” (Harsha Chigurupati, priority 2015, dated 2019).
Where a SMILES comes first, the peptide text is derived from it.

Columns and labels:
serum ALT, AST and ALP = test: Hepatoprotection study overall (rise of serum ALT, AST and ALP), 5 alcohol doses; assay type: in vivo, Wistar albino rats; conditions: 5 alcohol doses of 4 gm/kg per oral
[1] = test system: serum alanine aminotransferase (ALT); test: Hepatoprotection study, serum ALT, alcohol 5 days; assay type: in vivo, Wistar albino rats; conditions: Pro: Protection (%), rats, alcohol 4 gm/kg/day p.o.
[2] = test system: aspartate aminotransferase (AST); test: Hepatoprotection study, serum AST, alcohol 5 days; assay type: in vivo, Wistar albino rats; conditions: Pro: Protection (%), rats, alcohol 4 gm/kg/day p.o.
[3] = test system: serum C-reactive protein (CRP); test: CNS/immunology study, serum CRP, alcohol 5 days; assay type: in vivo, Wistar albino rats; conditions: Pro: Protection (%), rats, alcohol 5 Day
Text: (§1) For hangover, 1 day immunology parameter were considered and for CNS, 5 days immunology parameter were considered.

interleukin-12 (IL-12) [4] = test: CNS/immunology study, serum IL-12, alcohol 5 days; assay type: in vivo, Wistar albino rats; conditions: Pro: Protection (%), rats, alcohol 5 Day
Text: as §1

[5] = test system: Monocyte chemoattractant protein-1 (MCP-1); test: CNS/immunology study, serum MCP-1, alcohol 5 days; assay type: in vivo, Wistar albino rats; conditions: Pro: Protection (%), rats, alcohol 5 Day
Description: (§2) The lowest detectable limit of the kit is 0.1 ng/ml (Wang L, Li Y, Chen J, et al. “Ischemic Cerebral Tissue and MCP-1 Enhance Rat Bone Marrow Stromal Cell Migration in Interface Culture.” Experimental Hematology, 30, 7, 2002, 831-836).
as §1

Interferon gamma (IFN-γ) [6] = test: CNS/immunology study, serum IFN-gamma, alcohol 5 days; assay type: in vivo, Wistar albino rats; conditions: Pro: Protection (%), rats, alcohol 5 Day
Text: (§3) Distilled ethanol was obtained from Bengal Chemicals, West Bengal, India. Biochemical kits like AST, ALT, ALP and total protein were obtained from Span Diagnostics Ltd. Surat, India. Rat IL-12 ELISA kit (Elabscience Biotechnology Co. Ltd, WuHan, P.R.C.), Rat CRP ELISA kit (BD Biosciences, USA), Rat IFN-gamma ELISA kit (Biolegend, San Diego, Calif.) Rat MCP-1 ELISA kit (Elabscience Biotechnology Co. Ltd, WuHan, P.R.C.). All the chemicals used in the present study were of analytical grade and obtained from the following companies: Sigma (St. Louis, Mo., USA), Merck (Mumbai, India), S D fine chemicals (Mumbai, India) and Qualigen (Mumbai, India).
as §1

[7] = test system: interleukin-12 (IL-12) from brain homogenate; test: CNS study, IL-12 from brain homogenate, alcohol 5 days; assay type: in vivo, Wistar albino rats; conditions: rats, alcohol 5 Day; for Brain IL12 Pro: Pro: Protection (%)
[8] = test system: Monocyte chemoattractant protein-1 (MCP-1) from brain homogenate; test: CNS study, MCP-1 from brain homogenate, alcohol 5 days; assay type: in vivo, Wistar albino rats; conditions: rats, alcohol 5 Day; for Brain MCP-1 Pro: Pro: Protection (%)
[9] = test system: spatial learning and memory; test: Morris water maze task (escape latency), alcohol 5 days; assay type: in vivo, Wistar albino rats; conditions: Pro: Protection (%), rats, alcohol 5 day
[10] = test system: serum C-reactive protein (CRP); test: Hangover study, serum CRP, alcohol 1 day; assay type: in vivo, Wistar albino rats; conditions: 1 Day alcohol
Text: as §1

interleukin-12 (IL-12) [11] = test: Hangover study, serum IL-12, alcohol 1 day; assay type: in vivo, Wistar albino rats; parameters: concentration or dose not given beside the values; conditions: 1 Day alcohol
Text: as §1

[12] = test system: Monocyte chemoattractant protein-1 (MCP-1); test: Hangover study, serum MCP-1, alcohol 1 day; assay type: in vivo, Wistar albino rats; parameters: concentration or dose not given beside the values; conditions: 1 Day alcohol
Description: as §2, §1

Interferon gamma (IFN-γ) [13] = test: Hangover study, serum IFN-gamma, alcohol 1 day; assay type: in vivo, Wistar albino rats; parameters: concentration or dose not given beside the values; conditions: 1 Day alcohol
Text: as §3, §1

[14] = test system: interleukin-12 (IL-12) from brain homogenate; test: Hangover study, IL-12 from brain homogenate, alcohol 1 day; assay type: in vivo, Wistar albino rats; parameters: concentration or dose not given beside the values; conditions: 1 Day alcohol
[15] = test system: Monocyte chemoattractant protein-1 (MCP-1) from brain homogenate; test: Hangover study, MCP-1 from brain homogenate, alcohol 1 day; assay type: in vivo, Wistar albino rats; conditions: 1 Day alcohol
[16] = test system: alkaline phosphatase (ALP); conditions: Pro: Protection (%); rats, alcohol 4 gm/kg/day p.o., 5 days, serum
Description: The levels of alanine aminotransferase (ALT), aspartate aminotransferase (AST) and alkaline phosphatise (ALP) in serum were measured using commercial spectrophotometric kit bought from Span Diagnostic Ltd. (www.span.in) according to the manufacturer's protocols.
12-16 hours after the last dose, the animals were sacrificed and blood samples were collected for estimation of biochemical parameters.
Male Wistar albino rats weighing 150-200 g were procured and randomly divided into groups consisting of twelve (12) animals in each group. Hepatoprotection was induced by alcohol in rats by oral administration of 30% alcohol (4 gm/kg/day, p.o.) for 5 days and this group served as the negative control and treated groups received different formulation.
All drug solutions were prepared in 40% aqueous alcohol, adjusting the pH in the range of 5.0-10.0 for evaluation of alcohol induced Hepatoprotection. This solution was further diluted with distilled water to obtain 30% aqueous alcoholic solution and administered orally by gavage to different rats group of step (a).

[17] = test system: acetylcholinesterase activity of brain homogenate; conditions: Pro: Protection (%), rats, alcohol 5 Day
Description: (§4) We have included this parameter to evaluate cognition and memory deficit in experimental animals.
(§5) Experimental Design • (b) Animal study model 1: Saline/Alcohol (4.0 gm/kg/day, p.o.)/Formulation with alcohol (4.0 gm/kg/day, p.o.) were administered (fed orally by orogastric cannula) for one day. 12-16 hours after the dose the animals were sacrificed and blood samples will be collected for estimation of biochemical parameters. Whole brain without cerebellum were dissected out, 10% homogenate was prepared with 0.1 M PB (pH 7.4). The homogenate solution was centrifuged at 10000 rpm for 20 minutes at 4° C. and the supernatant was used for estimation of acetylcholinesterase activity, which was estimated by Ellman's method (Ellman G L et al. A new and rapid colorimetric determination of acetylcholinesterase activity. Biochem Pharmacol, 1961, 7:88.) • (c) Animal study model 2: Saline/Alcohol (4.0 gm/kg/day, p.o.)/Formulation with alcohol (4.0 gm/kg/day, p.o.) were administered (fed orally by orogastric cannula) for 5 consecutive days. 12-16 hours after the last dose, the animals were sacrificed and blood samples were collected for estimation of biochemical parameters. Whole brain without cerebellum were dissected out, 10% homogenate was prepared with 0.1 M PB (pH 7.4). The homogenate solution was centrifuged at 10000 rpm for 20 minutes at 4° C. and the supernatant was used for estimation of acetylcholinesterase activity. […] The latency period of day 5 (before alcohol) was compared with post alcohol latency period (Vorhees C V and Williams M T. Morris water maze: procedures for assessing spatial and related forms of learning and memory, Nat Protoc, 2006, 1(2): 848-58.). % Protection Calculated in Above Experiments: % Protection=1−[(T−NS)/(AL−NS)]×100 T=Mean value of drug treated, NS=Mean value of normal control, AL=Mean value of alcohol alone.
(§6) Male Wistar albino rats weighing 150-200 g were procured and randomly divided into groups consisting of twelve (12) animals in each group. Alcohol induced hangover and CNS related biochemical changes and memory function in rats by oral administration of 30% alcohol (4 gm/kg/day, p.o.) for 1 and 5 days and this group served as the negative control and treated groups received different formulation.
(§7) All drug solutions were prepared in 40% aqueous alcohol, adjusting the pH in the range of 5.0-10.0 for evaluation of alcohol induced hangover and CNS related biochemical parameters.

[18] = test system: acetylcholinesterase activity of brain homogenate; conditions: Hangover study, 1 Day alcohol; ingredient amounts in mass concentration (%)
Description: as §4, §5, §6, §7

Row | Structure (SMILES) | ALT Pro [1] [%] | AST Pro [2] [%] | CRP Pro [3] [%] | IL12 Pro (interleukin-12 (IL-12) [4]) [%] | MCP-1 Pro [5] [%] | IFN-Gamma Pro (Interferon gamma (IFN-γ) [6]) [%] | Brain IL12 Pro [7] [%] | Brain MCP-1 Pro [8] [%] | WATER MAZE Pro [9] [%] | CRP Pro (Protection) [10] [%] | IL12 Pro (Protection) (interleukin-12 (IL-12) [11]) [%] | MCP-1 Pro (Protection) [12] [%] | IFN-Gamma Pro (Protection) (Interferon gamma (IFN-γ) [13]) [%] | Brain IL12 Pro (Protection) [14] [%] | Brain MCP-1 Pro (Protection) [15] [%] | ALP Pro [16] [%] | ACHe Pro [17] [%] | ACHe Pro (Protection) [18] [%] | other results
1 | OC[C@@H](O)[C@@H](O)[C@H](O)[C@H](O)CO [Mannitol, D-Mannitol] | – | – | – | – | – | – | – | – | – | – | – | – | – | – | – | – | – | – | degree of protection (serum ALT, AST and ALP; individual ingredient at 0.5 to […]): 10-38%
2 | CC1(C(=O)O)CCC2(C)CCC3(C)C(=CC(=O)C4C5(C)CCC(OC6OC(C(=O)O)C(O)C(O)C6OC6OC(C(=O)O)C(O)C(O)C6O)C(C)(C)C5CCC43C)C2C1 (stereo not drawn) [0.1 GA, 18β-GA] | 4.24 | 8.25 | 5.19 | 5.85 | 0 | 0 | 3.66 | 3.58 | 5.32 | 5.15 | 2.6 | 3.79 | 2.58 | 3.16 | 4.25 | 6.29 | 9.4 | 11.79 | –
3 | C[C@H](N)C(=O)N[C@@H](CCC(N)=O)C(=O)O [0.5 DP, L-Ala-L-Gln] (H-Ala-Gln-OH) | 9.13 | 5.86 | 6.13 | 2.64 | 0.1 | 3.32 | 2.35 | 5.12 | 5.18 | 4.05 | 0.54 | 4.33 | 2.58 | 3.69 | 4.59 | 6.95 | 4.33 | 4.33 | –
4 | CC1(C(=O)O)CCC2(C)CCC3(C)C(=CC(=O)C4C5(C)CCC(OC6OC(C(=O)O)C(O)C(O)C6OC6OC(C(=O)O)C(O)C(O)C6O)C(C)(C)C5CCC43C)C2C1 (stereo not drawn) [GA, 18-beta-Glycyrrhizin] | – | – | – | – | – | – | – | – | – | – | – | – | – | – | – | – | – | – | degree of protection (serum ALT, AST and ALP; GA as such at 0.04-0.3%): 5-25%
5 | CC1(C(=O)O)CCC2(C)CCC3(C)C(=CC(=O)C4C5(C)CCC(OC6OC(C(=O)O)C(O)C(O)C6OC6OC(C(=O)O)C(O)C(O)C6O)C(C)(C)C5CCC43C)C2C1 (stereo not drawn) [0.04a GA, 18α-GA] | 1.26 | 2.24 | 0.1 | 0.1 | 0.1 | 0.1 | 0.1 | 0.1 | 2.1 | 0.1 | 0.1 | 0.1 | 0.1 | 0.1 | 0.1 | 1.08 | 0.1 | 0.1 | –
6 | C/C=C/C=C/C(=O)[O-].[K+] [0.1 KS, Potassium Sorbate] | 0.11 | 0.09 | 0.87 | 1.2 | 1.04 | 0 | 0.00 | 0 | 1.31 | 1.2 | 0.89 | 0.16 | 0.11 | 0.24 | 0.19 | 0 | 0 | 0.24 | Brain IL12 Syn ([7]; Syn: Synergism (%)): 0%; Brain MCP-1 Syn ([8]; Syn: Synergism (%)): 0%
7 | C[C@H](N)C(=O)N[C@@H](CCC(N)=O)C(=O)O [L-alanine-L-glutamine (DP), L-alanyl-L-glutamine] (H-Ala-Gln-OH) | – | – | – | – | – | – | – | – | – | – | – | – | – | – | – | – | – | – | degree of protection (serum ALT, AST and ALP; dose level of 0.5 to 1.0%): mild effect; degree of protection (serum ALT, AST and ALP; higher doses (2.0 to 3.0%)): high degree of protection
8 | CC1(C(=O)O)CCC2(C)CCC3(C)C(=CC(=O)C4C5(C)CCC(OC6OC(C(=O)O)C(O)C(O)C6OC6OC(C(=O)O)C(O)C(O)C6O)C(C)(C)C5CCC43C)C2C1 (stereo not drawn) [0.04 GA, 18β-GA] | 0.89 | 2.18 | 2.37 | 3.08 | 3.38 | 1.07 | 1.28 | 1.58 | 1.58 | 2.04 | 1.05 | 0.6 | 1.25 | 1.09 | 1.15 | 2.78 | 1.43 | 0.59 | –
9 | C[C@H](N)C(=O)N[C@@H](CCC(N)=O)C(=O)O [0.75 DP, L-Ala-L-Gln] (H-Ala-Gln-OH) | 5.28 | 9.14 | 3.78 | 13.88 | 0.75 | 5.62 | 7.01 | 9.63 | 13.15 | 15.93 | 14.84 | 5.25 | 6.38 | 7.14 | 10.14 | 12.24 | 6.73 | 8.94 | –
